The values that follow come from article PMC12040169 (PLOS Biology, 2025).

This series can be described thus: in vitro. To be noted: human, hela cells, % viability.

As usually defined, the viability is a read-out of living cells in per cent, often relative to untreated cells. For the compound `CCN(CC)Cc1c(O)ccc2occ(C(=O)c3cc(OC)ccc3OC)c12` [CBK261949], the viability at 28.5 h, 10 µM came out at 97%.
The value for `CC1(C)CC(=NNC(=O)CCc2cc(C(C)(C)C)c(O)c(C(C)(C)C)c2)CC(C)(C)N1` [CBK261952] was 108%; that for `C(#Cc1ccc(-c2nc(-c3ccc(Sc4ccccc4)cc3)c(-c3ccc(Sc4ccccc4)cc3)[nH]2)cc1)c1ccccc1` [CBK261954] was 95.3%.
As for `O=C(N/N=C/c1cccc(Oc2ccccc2)c1)c1ccncc1` [CBK261955], the figure is 95.6%.
As for `CC1(C)CC(NC(=O)CN2CCCCC2)CC(C)(C)N1` [CBK261956], the figure is 92.4%; as for `CN(C)Cc1c(O)ccc2occ(C(=O)c3cccs3)c12` [CBK261959C], 103%; as for `O=C(N/N=C\C=C\c1ccco1)c1ccc([N+](=O)[O-])cc1` [CBK261961], 102%.
On to `c1ccc(-c2nc3ccc(Oc4ccc5nc(-c6ccccn6)c(-c6ccccn6)nc5c4)cc3nc2-c2ccccn2)nc1` [CBK261964], for which the viability at 28.5 h, 10 µM came out at 99.6%.
With `CN(C)Cc1c(O)ccc2occ(C(=O)c3ccccc3)c12` [CBK261965], the viability at 28.5 h, 10 µM is 94%.
Take `Clc1ccc(-c2ccc(/C=N/c3ccc4oc(-c5ccccc5)nc4c3)o2)cc1` [CBK261969]: the viability at 28.5 h, 10 µM amounted to 102%.
The value for `C/C(=N\NC(=O)CCC(=O)Nc1ccc(I)cc1)c1ccc(O)cc1O` [CBK261971] was 89.9%.
The value for `Cc1ccc(S(=O)(=O)N=C2NCN(C)CN2)cc1` [CBK261972] was 94.3%.
On to `O=C(O)CC(Cc1ccc(Cl)cc1)C(=O)Nc1ccc([N+](=O)[O-])cc1` (centres unmarked) [CBK261973], for which the viability at 28.5 h, 10 µM is 89.7%.
As for `Cc1cc(Cl)ccc1NC(=O)CCC(=O)N/N=C/c1ccc(O)cc1` [CBK261974], the figure is 89.6%; as for `c1ccc(-c2nc3ccc(Cc4ccc5nc(-c6ccccn6)c(-c6ccccn6)nc5c4)cc3nc2-c2ccccn2)nc1` [CBK261975], 101%; as for `N/N=C1\C2CN3CCN(C2)CC1(Cc1ccccc1)C3` [CBK261977], 91.8%.
As for `CN(Cc1cc(C(C)(C)C)c(O)c(C(C)(C)C)c1)Cc1cc(C(C)(C)C)c(O)c(C(C)(C)C)c1` [CBK261980], the figure is 97%; as for `COc1ccc(/C=N/NS(C)(=O)=O)cc1` [CBK261981], 108%.
As for `COc1ccc(/C=N/Nc2ccc([N+](=O)[O-])cc2)c(C(=O)O)c1OC` [CBK261984], the figure is 90.5%.
`CC1(C)CC(N2CN(C3CC(C)(C)NC(C)(C)C3)CN(C3CC(C)(C)NC(C)(C)C3)C2)CC(C)(C)N1` [CBK261985]: the viability at 28.5 h, 10 µM came out at 90.8%.
The value for `O=C(CNC(=O)c1ccc2c(c1)OCCO2)N/N=C/c1cccs1` [CBK261987] was 86.5%; that for `Nc1nonc1-n1nnc(C(=O)N/N=C/c2ccc([N+](=O)[O-])cc2)c1-c1ccccc1` [CBK261992] was 86.4%; that for `CN(C)CCCn1cccc1C=O` [CBK261993G] was 90.3%.
Regarding `Oc1c(CN2CCN(Cc3ccc4cccnc4c3O)CC2)ccc2cccnc12` [CBK261994], the viability at 28.5 h, 10 µM amounted to 86.1%.
As for `CCCNc1nc(Cl)nc(NCc2cccnc2)n1` [CBK261995], the figure is 89%; as for `O=C(O)CC(NC=C1C(=O)CCCC1=O)C(=O)O` (centres unmarked) [CBK261997], 85.2%; as for `CC(C)(C)c1cc(CCCOC(=O)CNC2CCCCC2)cc(C(C)(C)C)c1O` [CBK261998], 89.4%.
The value for `COc1ccc(OCCOCCN2CCOCC2)cc1` [CBK261999] was 91.3%; that for `COc1cc(NC(=O)C(c2ccccc2)c2ccccc2)c(C(=O)O)cc1OC` [CBK262001] was 90.1%; that for `O=C(CC1=C(O)C(=O)c2ccccc2C1=O)c1ccccc1` [CBK262002] was 80.5%.
For `Oc1ccc2ccccc2c1/C=N/Nc1nnc(-c2ccccc2)c(-c2ccccc2)n1` [CBK262005], the viability at 28.5 h, 10 µM worked out at 91.9%.
As for `Cc1ccccc1C(=O)Nc1cc(NC(=O)c2ccccc2C)cc(C(=O)O)c1` [CBK262007], the figure is 109%.
As for `CC1(C)CC(N2CNC(=N)N(C#N)C2)CC(C)(C)N1` [CBK262008], the figure is 90.7%; as for `Oc1ccc(/N=N/c2cccc(Br)c2)cc1/C=N/c1ccc(-c2nc3ncccc3o2)cc1` [CBK262009], 85.9%; as for `Oc1ccc(/C=N/Nc2nnc(-c3ccccc3)c(-c3ccccc3)n2)cc1` [CBK262011], 112%.
In the case of `Cc1ccccc1NC(=O)CCC(=O)N/N=C/c1ccncc1` [CBK262016], the viability at 28.5 h, 10 µM turned out to be 101%.
Regarding `O=C(O)CC(Cc1ccc(Cl)cc1)C(=O)Nc1ccccc1I` (centres unmarked) [CBK262021], the viability at 28.5 h, 10 µM is 90%.
As for `O=C(N/N=C/c1c(Cl)cccc1Cl)c1cc(Br)ccc1O` [CBK262022], the figure is 95.1%; as for `Cc1ccc([N+](=O)[O-])cc1NC1OCC(O)C(O)C1O` (centres unmarked) [CBK262026], 98.8%.
On to `COc1cc(/C=N/NC(=O)Cc2nnc(N)s2)cc(OC)c1OC` [CBK262027], for which the viability at 28.5 h, 10 µM is 109%.
As for `Oc1ccc2ccccc2c1/C=N/Nc1nnn[nH]1` [CBK262028], the figure is 106%.
As for `Cc1ccc([N+](=O)[O-])cc1NC1OC(C(O)CO)C(O)C1O` (centres unmarked) [CBK262031], the figure is 98%; as for `O=C(O)c1ccc(/C=N/c2ccc(S(=O)(=O)c3ccc(/N=C/c4ccc(C(=O)O)cc4)cc3)cc2)cc1` [CBK262038], 92.4%; as for `CN(CCN(C)/N=C/c1c2ccccc2cc2ccccc12)/N=C/c1c2ccccc2cc2ccccc12` [CBK262039], 94.8%.
As for `CC(CNC(=O)c1cncc(Br)c1)NC(=O)c1cncc(Br)c1` (centres unmarked) [CBK262040], the figure is 91.6%.
As to `Oc1c(Br)cc(Cl)cc1/C=N/Nc1nnc2c(n1)[nH]c1ccccc12` [CBK262041], the viability at 28.5 h, 10 µM amounted to 114%.
As for `OCC(O)/C=N/Nc1nc(Nc2ccccc2)nc(N2CCCCC2)n1` (centres unmarked) [CBK262042], the figure is 107%; as for `CN(C)CCCNC=C1C(=O)CC(C)(C)CC1=O` [CBK262043], 92.2%.
As for `Cc1n[nH]c(C)c1Sc1ccccc1/N=C/c1ccc([N+](=O)[O-])cc1` [CBK262045], the figure is 87.4%; as for `O=S1(=O)CC(OS(=O)(=O)c2ccc(Cl)cc2)C(OS(=O)(=O)c2ccc(Cl)cc2)C1` (centres unmarked) [CBK262049], 104%; as for `Oc1ccccc1CN1CCN(Cc2ccccc2O)C1c1ccccc1Br` [CBK262050], 98.1%.
In the case of `O=C(CO/N=C\c1cccc([N+](=O)[O-])c1)Nc1ccccc1C(=O)O` [CBK262051], the viability at 28.5 h, 10 µM worked out at 91.7%.
`Cc1[nH]c(=O)[nH]c(=O)c1N(CCO)CCO` [CBK262052]: the viability at 28.5 h, 10 µM worked out at 94.8%.
The value for `Cc1cc([N+](=O)[O-])ccc1/N=C\c1ccc(C(=O)O)cc1` [CBK262058] was 95.4%; that for `Clc1ccc(COc2ccc(/C=N/Nc3nc(N4CCOCC4)nc(N4CCOCC4)n3)cc2)c(Cl)c1` [CBK262061] was 103%; that for `N#CC(/N=C/c1ccc(C#Cc2ccccc2)cc1)=C(C#N)/N=C/c1ccc(C#Cc2ccccc2)cc1` [CBK262066] was 88%.
As for `COc1ccc(-c2n[nH]cc2/C=N/NC(=O)c2cc(Br)ccc2O)c(OC)c1` [CBK262067], the figure is 85.9%.
Consider `CC1CCN(S(=O)(=O)c2cccc3c(S(=O)(=O)N4CCC(C)CC4)cccc23)CC1` [CBK262071], for which the viability at 28.5 h, 10 µM came to 98.2%.
As for `Cc1ccc2ccc(S(=O)(=O)NCc3cccnc3)cc2c1` [CBK262072], the figure is 98.8%; as for `CCN(CC)CC(c1ccccc1)C(O)c1ccc(OC)cc1` (centres unmarked) [CBK262074C], 88.8%; as for `COc1cc(C)nc(NN)n1` [CBK262078], 108%.
In the case of `Cc1cc(-c2cc(C)n[nH]2)[nH]n1` [CBK262079], the viability at 28.5 h, 10 µM was determined as 107%.
The value for `CC(=O)C(C(=O)Nc1ccc(F)cc1)C(c1cccc2ccccc12)C(C#N)C#N` (centres unmarked) [CBK262081] was 90.4%; that for `Cc1nc2cc(/N=C/c3c[nH]c4ccccc34)ccc2n1C` [CBK262085] was 88.8%.
As for `c1ccc(CC(NCc2c[nH]c3ccccc23)c2ccccc2)cc1` (centres unmarked) [CBK262087], the figure is 96.4%; as for `CC(C)(CNS(=O)(=O)c1ccc(Cl)cc1)OCc1ccccc1` [CBK262088], 91.4%; as for `O=C(/C=C(\c1ccccc1)n1cncn1)c1ccc(Cl)cc1` [CBK262089], 90.7%.
As for `Cc1ccc(N(CC(=O)N/N=C/c2ccccc2)S(=O)(=O)c2ccccc2)cc1` [CBK262090], the figure is 88.3%; as for `O=C(Nc1ccccc1O)c1ccc2c(c1)C(=O)N(c1ccc(Sc3ccc([N+](=O)[O-])cc3)cc1)C2=O` [CBK262092], 86.8%; as for `O=C(O)c1ccc(S(=O)(=O)NCc2ccccc2)cc1` [CBK262093], 102%.
For `O=C(Oc1cccc(-c2cnc3ccccc3n2)c1)c1cccc(S(=O)(=O)N2CCOCC2)c1` [CBK262096], the viability at 28.5 h, 10 µM was determined as 89.3%.
As to `Cc1ccc(/C=N/NC(=O)CN(c2ccccc2)S(=O)(=O)c2ccccc2)c(C)c1C` [CBK262098], the viability at 28.5 h, 10 µM worked out at 89.6%.
The value for `C/C(=N\Nc1nc(-c2ccccc2)cs1)c1ccccc1` [CBK262104] was 88.8%; that for `Cc1ccccc1C(=O)NC(=S)Nc1sc2c(c1C(N)=O)CCC2` [CBK262107] was 88.9%.
The value for `CC(NC(=O)COc1ccc(Cl)cc1)C(=O)O` (centres unmarked) [CBK262112] was 90.7%; that for `CC(Oc1cccc(Cl)c1)C(=O)N/N=C/c1cccc(Oc2ccccc2)c1` (centres unmarked) [CBK262113] was 77.5%; that for `Cn1c(/N=N/c2c(-c3ccccc3)n(C)c3ccccc23)nc2ccccc21` [CBK262114] was 81.2%.
